Among the data in US10722514B2 (FLX Bio, Inc., priority 2017, dated 2020) are IC50 values, retold here.

The assay addresses T1, recombinant full-length USP7 (Homo sapiens, UniProt Q93009).
T1 construct: A 25 μl reaction volume containing recombinant full-length USP7 (62 pM)
Kind of assay: USP7-mediated ubiquitin-rhodamine cleavage assay. It counts as biochemical. The following applies: recombinant full-length USP7 62 pM; ubiquitin-rhodamine 100 nM; 30-minute incubation with compound, 1 hour reaction at room temperature; read-out: Potency: USP7 IC50. In a few lines:
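Rhodamine fluorescence read-out after acetic acid stop; IC50 by 4-parameter nonlinear regression. Enzyme at 62 pM, substrate ubiquitin-rhodamine 100 nM final, 1 h at room temperature in the dark, after 30 min compound preincubation. Buffer: HEPES pH 7.3, NaCl, TCEP, BSA; 1% DMSO.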

T1 sequence (Q93009 whole entry): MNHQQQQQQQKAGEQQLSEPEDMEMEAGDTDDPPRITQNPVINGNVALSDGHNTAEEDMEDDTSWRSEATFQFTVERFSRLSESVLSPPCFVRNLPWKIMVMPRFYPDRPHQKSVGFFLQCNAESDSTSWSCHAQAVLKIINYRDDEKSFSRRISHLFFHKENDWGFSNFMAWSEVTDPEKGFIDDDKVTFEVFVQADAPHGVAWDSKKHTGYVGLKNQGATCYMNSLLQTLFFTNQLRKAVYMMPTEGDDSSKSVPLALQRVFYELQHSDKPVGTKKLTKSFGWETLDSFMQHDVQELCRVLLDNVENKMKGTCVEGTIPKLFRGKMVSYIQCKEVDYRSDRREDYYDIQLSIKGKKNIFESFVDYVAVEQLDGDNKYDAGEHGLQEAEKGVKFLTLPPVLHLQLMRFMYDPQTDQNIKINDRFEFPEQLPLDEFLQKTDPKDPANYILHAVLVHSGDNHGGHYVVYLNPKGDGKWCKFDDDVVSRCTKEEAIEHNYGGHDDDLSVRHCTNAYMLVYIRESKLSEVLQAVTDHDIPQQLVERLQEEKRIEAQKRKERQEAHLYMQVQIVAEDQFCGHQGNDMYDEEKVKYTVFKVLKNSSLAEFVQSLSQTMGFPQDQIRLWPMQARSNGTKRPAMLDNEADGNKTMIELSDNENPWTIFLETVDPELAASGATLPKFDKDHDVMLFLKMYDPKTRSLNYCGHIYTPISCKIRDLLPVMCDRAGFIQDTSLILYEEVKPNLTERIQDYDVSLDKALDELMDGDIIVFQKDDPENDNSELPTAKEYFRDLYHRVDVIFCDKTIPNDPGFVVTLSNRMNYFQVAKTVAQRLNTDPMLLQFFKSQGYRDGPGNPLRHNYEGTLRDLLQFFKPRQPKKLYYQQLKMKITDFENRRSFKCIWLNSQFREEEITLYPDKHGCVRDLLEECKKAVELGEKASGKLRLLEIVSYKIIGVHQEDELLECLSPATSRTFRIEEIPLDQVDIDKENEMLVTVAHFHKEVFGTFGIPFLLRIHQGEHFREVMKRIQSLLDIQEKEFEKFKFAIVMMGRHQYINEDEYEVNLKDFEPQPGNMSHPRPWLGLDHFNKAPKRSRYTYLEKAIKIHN

As for `CCC(O)c1cc2nccc(-c3cc(Cl)cc(C)c3OC3CCNCC3)c2s1` (stereo not shown) [Example 261, 1-(7-(5-Chloro-3-methyl-2-(piperidin-4-yIoxy)phenyl)thieno[3,2-b]pyridin-2-yl)propan-1-ol], the IC50 lay in the range of 1000 to 10000 nM. To `Cc1cc(Cl)cc(-c2ncnc3ccsc23)c1O[C@H]1CCCNC1` [Example 262, (S)-4-(5-Chloro-3-methyl-2-(piperidin-3-yloxy)phenyl)thieno[3,2-d]pyrimidine] belongs 10000 to 30000 nM; to `CC(=O)NCc1cc2nccc(-c3cc(Cl)cc(C)c3O[C@H]3CCCNC3)c2s1` [Example 263, (S)—N-((7-(5-Chloro-3-methyl-2-(piperidin-3-yloxy)phenyl)thieno[3,2-b]pyridin-2-yl)methyl)acetamide], 1000 to 10000 nM. For the compound `Cc1cc(Cl)cc(-c2ccnc3ccsc23)c1OC1CCCCNC1` (stereo not shown) [Example 264, 7-(2-(Azepan-3-yloxy)-5-chloro-3-methylphenyl)thieno[3,2-b]pyridine], the IC50 was 10000 to 30000 nM. On to `CCC(O)c1cc2nccc(-c3cc(Cl)cc(C)c3OC3CCCCNC3)c2s1` (stereo not shown) [Example 265, 1-(7-(2-(Azepan-3-yloxy)-5-chloro-3-methylphenyl)thieno[3,2-b]pyridin-2-yl)propan-1-ol], for which the IC50 was 1000 to 10000 nM. Next, `Cc1cc(Cl)cc(-c2ccnc3ccsc23)c1OC1CCCNCC1` (stereo not shown) [Example 266, 7-(2-(Azepan-4-yloxy)-5-chloro-3-methylphenyl)thieno[3,2-b]pyridine]: 1000 to 10000 nM; `CCC(O)c1cc2nccc(-c3cc(Cl)cc(C)c3OC3CCCNCC3)c2s1` (stereo not shown) [Example 267, 1-(7-(2-(Azepan-4-yloxy)-5-chloro-3-methylphenyl)thieno[3,2-b]pyridin-2-yl)propan-1-ol]: 1000 to 10000 nM; `Cc1cc(Cl)cc(-c2ccnc3cc(CN4C(=O)CCC4=O)sc23)c1O[C@H]1CCCCNC1` [Example 268, (S)-1-((7-(2-(azepan-3-yloxy)-5-chloro-3-methylphenyl)thieno[3,2-b]pyridin-2-yl)methyl)pyrrolidine-2,5-dione]: < 1000 nM. On to `Cc1cc(Cl)cc(-c2ccnc3cc(CN4C(=O)CCC4=O)sc23)c1O[C@H]1CCCNCC1` [Example 269, (S)-1-((7-(2-(Azepan-4-yloxy)-5-chloro-3-methylphenyl)thieno[3,2-b]pyridin-2-yl)methyl)pyrrolidine-2,5-dione], for which the IC50 was < 1000 nM. Next, `Cc1cc(Cl)cc(-c2ccnc3cc(CN4C(=O)CCC4=O)sc23)c1O[C@@H]1CCCNCC1` [Example 270, (R)-1-((7-(2-(Azepan-4-yloxy)-5-chloro-3-methylphenyl)thieno[3,2-b]pyridin-2-yl)methyl)pyrrolidine-2,5-dione]: < 1000 nM. Consider `Cc1cc(Cl)cc(-c2ccnc3cc(CN4C(=O)CCC4=O)sc23)c1OC1CNCCOC1` (stereo not shown) [Example 271, 1-((7-(2-((1,4-Oxazepan-6-yl)oxy)-5-chloro-3-methylphenyl)thieno[3,2-b]pyridin-2-yl)methyl)pyrrolidine-2,5-dione], for which the IC50 is 1000 to 10000 nM. To `Cc1cc(Cl)cc(-c2ccnc3cc(Cn4c(=O)ccn(CC(F)(F)F)c4=O)sc23)c1OC1CCNCC1C(F)(F)F` (stereo not shown) [Example 272, 3-((7-(5-Chloro-3-methyl-2-((3-(trifluoromethyl)piperidin-4-yl)oxy)phenyl)thieno[3,2-b]pyridin-2-yl)methyl)-1-(2,2,2-trifluoroethyl)pyrimidine-2,4(1H,3H)-dione] belongs < 1000 nM; to `Cc1cc(Cl)cc(-c2ccnc3cc(Cn4c(=O)ccn(CC(F)(F)F)c4=O)sc23)c1O[C@@H]1CCN(C)C[C@@H]1C` [Example 273, 3-((7-(5-Chloro-2-(((3S,4R)-1,3-dimethylpiperidin-4-yl)oxy)-3-methylphenyl)thieno[3,2-b]pyridin-2-yl)methyl)-1-(2,2,2-trifluoroethyl)pyrimidine-2,4(1H,3H)-dione], < 1000 nM.

With `Cc1cc(Cl)cc(-c2ccnc3cc(Cn4c(=O)ccn(CC(F)(F)F)c4=O)sc23)c1OC1(C(F)(F)F)CCCNC1` (stereo not shown) [Example 274, 3-((7-(5-Chloro-3-methyl-2-((3-(trifluoromethy)piperidin-3-yl)oxy)phenyl)thieno[3,2-b]pyridin-2-yl)methyl)-1-(2,2,2-trifluoroethyl)pyrimidine-2,4(1H,3H)-dione], the IC50 is < 1000 nM. Next, `Cc1cc(Cl)cc(-c2ccnc3cc(Cn4c(=O)ccn(CC(F)(F)F)c4=O)sc23)c1O[C@@H]1CCNC[C@H]1C` [Example 275, 3-((7-(5-Chloro-3-methyl-2-(((3R,4R)-3-methylpiperidin-4-yl)oxy)phenyl)thieno[3,2-b]pyridin-2-yl)methyl)-1-(2,2,2-trifluoroethyl)pyrimidine-2,4(1H,3H)-dione]: < 1000 nM; `Cc1cc(Cl)cc(-c2ccnc3cc(Cn4c(=O)ccn(CC(F)(F)F)c4=O)sc23)c1O[C@@H]1CCNC[C@@]1(C)F` [Example 276, 3-((7-(5-Chloro-2-(((3R,4R)-3-fluoro-3-methylpiperidin-4-yl)oxy)-3-methylphenyl)thieno[3,2-b]pyridin-2-yl)methyl)-1-(2,2,2-trifluoroethyl)pyrimidine-2,4(1H,3H)-dione]: < 1000 nM; `Cc1cc(Cl)cc(-c2ccnc3cc(Cn4c(=O)ccn(CC(F)(F)F)c4=O)sc23)c1O[C@H]1C[C@H](N)C1` [Example 277, 3-((7-(2-((1r,3r)-3-Aminocyclobutoxy)-5-chloro-3-methylphenyl)thieno[3,2-b]pyridin-2-yl)methyl)-1-(2,2,2-trifluoroethyl)pyrimidine-2,4(1H,3H)-dione]: < 1000 nM. As for `Cc1cc(Cl)cc(-c2ccnc3cc(Cn4c(=O)ccn(CC(F)(F)F)c4=O)sc23)c1O[C@H]1C[C@H](N2CCOCC2)C1` [Example 278, 3-((7-(5-Chloro-3-methyl-2-((1r,3r)-3-morpholinocyclobutoxy)phenyl)thieno[3,2-b]pyridin-2-yl)methyl)-1-(2,2,2-trifluoroethyl)pyrimidine-2,4(1H,3H)-dione], the IC50 is < 1000 nM. To `Cc1cc(Cl)cc(-c2ccnc3cc(Cn4c(=O)ccn(CC(F)(F)F)c4=O)sc23)c1OC1(C)CNC1` [Example 279, 3-((7-(5-Chloro-3-methyl-2-((3-methylazetidin-3-yl)oxy)phenyl)thieno[3,2-b]pyridin-2-yl)methyl)-1-(2,2,2-trifluoroethyl)pyrimidine-2,4(1H,3H)-dione] belongs < 1000 nM. `Cc1cc(Cl)cc(-c2ccnc3cc(Cn4c(=O)ccn(CC(F)(F)F)c4=O)sc23)c1O[C@H]1CNCC[C@H]1C` [Example 280, 3-((7-(5-Chloro-3-methyl-2-(((3R,4R)-4-methylpiperidin-3-yl)oxy)phenyl)thieno[3,2-b]pyridin-2-yl)methyl)-1-(2,2,2-trifluoroethyl)pyrimidine-2,4(1H,3H)-dione]: the IC50 is < 1000 nM. `Cc1cc([N+](=O)[O-])cc(-c2ccnc3cc(Cn4c(=O)ccn(CC(F)(F)F)c4=O)sc23)c1Oc1cncc(N)c1` [Example 281, 3-[[7-[2-[(5-amino-3-pyridyl)oxy]-3-methyl-5-nitro-phenyl]thieno[3,2-b]pyridin-2-yl]methyl]-1-(2,2,2-trifluoroethyl)pyrimidine-2,4-dione]: the IC50 was < 1000 nM. To `Cc1cc(Cl)cc(-c2ccnc3cc(Cn4c(=O)ccn(C(C)(C)C)c4=O)sc23)c1O[C@H]1CCCNC1` [Example 282] belongs < 1000 nM. On to `Cc1cc([N+](=O)[O-])cc(-c2ccnc3cc(Cn4c(=O)ccn(CC(F)(F)F)c4=O)sc23)c1OCc1cn[nH]c1` [Example 283, 3-[[7-[3-methyl-5-nitro-2-(1H-pyrazol-4-ylmethoxy)phenyl]thieno[3,2-b]pyridin-2-yl]methyl]-1-(2,2,2-trifluoroethyl)pyrimidine-2,4-dione; 2,2,2-trifluoroacetic acid], for which the IC50 is < 1000 nM. Next, `Cc1cc(Cl)cc(-c2ccnc3cc(Cn4c(=O)ccn(CC(F)F)c4=O)sc23)c1O[C@H]1CCCNC1` [Example 284, 3-[[7-[5-chloro-3-methyl-2-[[(3S)-3-piperidyl]oxy]phenyl]thieno[3,2-b]pyridin-2-yl]methyl]-1-(2,2-difluoroethyl)pyrimidine-2,4-dione; 2,2,2-trifluoroacetic acid]: < 1000 nM; `Cc1cc(Cl)cc(-c2ccnc3cc(Cn4c(=O)ccn(C5CC5)c4=O)sc23)c1O[C@H]1CCCNC1` [Example 285, 3-[[7-[5-chloro-3-methyl-2-[[(3S)-3-piperidyl]oxy]phenyl]thieno[3,2-b]pyridin-2-yl]methyl]-1-cyclopropyl-pyrimidine-2,4-dione; 2,2,2-trifluoroacetic acid]: < 1000 nM. On to `Cc1cc(Cl)cc(-c2ccnc3cc(Cn4c(=O)ccn(CC(F)(F)F)c4=O)sc23)c1O[C@H]1CCC(C)(C)NC1` [Example 286, 3-[[7-[5-chloro-2-[[(3S)-6,6-dimethyl-3-piperidyl]oxy]-3-methyl-phenyl]thieno[3,2-b]pyridin-2-yl]methyl]-1-(2,2,2-trifluoroethyl)pyrimidine-2,4-dione; 2,2,2-trifluoroacetic acid], for which the IC50 is < 1000 nM. To `Cc1cc(Cl)cc(-c2ccnc3cc([C@H](C)n4c(=O)ccn(C)c4=O)sc23)c1O[C@H]1CCCNC1` [Example 287, 3-[(1S)-1-[7-[5-chloro-3-methyl-2-[[(3S)-3-piperidyl]oxy]phenyl]thieno[3,2-b]pyridin-2-yl]ethyl]-1-methyl-pyrimidine-2,4-dione; 2,2,2-trifluoroacetic acid] belongs < 1000 nM; to `Cc1cc(Cl)cc(-c2ccnc3cc([C@H](C)N4C(=O)C5CC5C4=O)sc23)c1O[C@H]1CCCNC1` (stereo partly drawn) [Example 288, 3-[(1S)-1-[7-[5-chloro-3-methyl-2-[[(3S)-3-piperidyl]oxy]phenyl]thieno[3,2-b]pyridin-2-yl]ethyl]-3-azabicyclo[3.1.0]hexane-2,4-dione; 2,2,2-trifluoroacetic acid], < 1000 nM.

A word on the IC50: it is the midpoint of a concentration-inhibition curve.
